How the values were obtained:
[1] = system: MOLM-13 cells; experiment: MOLM-13 Cellular Assay; assay type: cell-based; conditions: Homo sapiens, 72 hours exposure, cell viability by CellTiter-Glo
Protocol: The day prior to assay set-up, cells were pelleted, resuspended in fresh media, counted, and cells were plated at 0.4×10^6 cell/mL in a T150 flask. […] Cells were exposed to different concentrations of test compounds at 37° C., 5% CO2 for 72 hours immediately after seeding.

[2] = target: T1, human DHODH (Homo sapiens, UniProt Q02127); experiment: DHODH Enzymatic Assay; assay type: biochemical; conditions: purified human DHODH; DCIP absorbance, end-point mode
T1 construct: purchased Proteros PR-0044
Protocol: To detect DHODH enzyme activities, dichloroindophenol (DCIP) is added as the final electron acceptor in the assay. DCIP can accept electrons from the reduced coenzyme Q generated in the assay, or from dihydroorotate (DHO) via FMN by binding presumably to the ubiquinone pocket. […] The assay buffer contained […], pH 7.5, 150 mM NaCl, 0.5 mM EDTA, and 0.1% Triton X-100 in MilliQ water. Substrate consisting of 20 mM DHO, 5 mM CoQ6, and 1 mM DCIP in assay buffer, initiates the reaction. […] Absorbance measurements were obtained using the BMG Phera Star plate-reading spectrophotomer. Purified human DHODH was purchased from Proteros (cat. No. PR-0044). Chemicals were purchased from Sigma-Aldrich, Teknova, and Avanti Polar Lipids. Liquid handling was performed using Labcyte Echo and Formulatrix Tempest.

T1 sequence (Q02127 whole entry): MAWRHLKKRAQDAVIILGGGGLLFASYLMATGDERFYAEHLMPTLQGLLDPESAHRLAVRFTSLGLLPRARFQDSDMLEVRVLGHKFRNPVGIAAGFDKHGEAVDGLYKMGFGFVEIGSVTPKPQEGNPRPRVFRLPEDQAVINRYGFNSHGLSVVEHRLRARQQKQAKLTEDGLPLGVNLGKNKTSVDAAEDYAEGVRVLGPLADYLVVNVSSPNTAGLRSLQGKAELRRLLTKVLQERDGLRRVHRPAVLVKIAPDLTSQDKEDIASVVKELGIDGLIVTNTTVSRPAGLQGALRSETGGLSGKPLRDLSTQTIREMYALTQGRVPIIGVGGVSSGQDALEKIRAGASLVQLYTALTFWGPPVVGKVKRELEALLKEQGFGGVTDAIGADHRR

EC50 [1]	EC50 [2]	Compound
0.037 nM	0.245 nM	CCn1c(CF)nn(-c2nc(O[C@@H](C)C(F)(F)F)c(C(=O)Nc3c(F)cccc3Cl)cc2F)c1=O [Example 3, (S)-N-(2-Chloro-6-fluorophenyl)-6-(4-ethyl-3-(fluoromethyl)-5-oxo-4,5-dihydro-1H-1,2,4-triazol-1-yl)-5-fluoro-2-((1,1,1-trifluoropropan-2-yl)oxy)nicotinamide]
32.5 nM	12.7 nM	CCn1c(CO)nn(-c2nc(O[C@@H](C)C(F)(F)F)c(C(=O)Nc3c(C)noc3C)cc2F)c1=O [Example 46, (S)-N-(3,5-Dimethylisoxazol-4-yl)-6-(4-ethyl-3-(hydroxymethyl)-5-oxo-4,5-dihydro-1H-1,2,4-triazol-1-yl)-5-fluoro-2-((1,1,1-trifluoropropan-2-yl)oxy)nicotinamide]
> 100 nM	52.5 nM	CCn1c(CO)nn(-c2nc(O[C@@H](C)C(F)(F)F)c(C(=O)Nc3cc(Cl)cnc3OC)cc2F)c1=O [Example 33, (S)-N-(5-Chloro-2-methoxypyridin-3-yl)-6-(4-ethyl-3-(hydroxymethyl)-5-oxo-4,5-dihydro-1H-1,2,4-triazol-1-yl)-5-fluoro-2-((1,1,1-trifluoropropan-2-yl)oxy)nicotinamide]
> 100 nM	865 nM	CCn1c(CO)nn(-c2nc(O[C@@H](C)C(F)(F)F)c(C(=O)Nc3cnn(CCOC)c3)cc2F)c1=O [Example 63, (S)-6-(4-Ethyl-3-(hydroxymethyl)-5-oxo-4,5-dihydro-1H-1,2,4-triazol-1-yl)-5-fluoro-N-(1-(2-methoxyethyl)-1H-pyrazol-4-yl)-2-((1,1,1-trifluoropropan-2-yl)oxy)nicotinamide]
1.83 nM	0.852 nM	CCn1c(CO)nn(-c2nc(O[C@@H](C)C(F)(F)F)c(C(=O)Nc3cnc(OC)cc3Cl)cc2F)c1=O [Example 50, (S)-N-(4-Chloro-6-methoxypyridin-3-yl)-6-(4-ethyl-3-(hydroxymethyl)-5-oxo-4,5-dihydro-1H-1,2,4-triazol-1-yl)-5-fluoro-2-((1,1,1-trifluoropropan-2-yl)oxy)nicotinamide]
0.73 nM	0.69 nM	CCn1c(CO)nn(-c2nc(O[C@@H](C)C(F)(F)F)c(C(=O)Nc3c(Cl)ccc(C)c3C)cc2F)c1=O [Example 83, N-(6-Chloro-2,3-dimethyl-phenyl)-6-[4-ethyl-3-(hydroxymethyl)-5-oxo-1,2,4-triazol-1-yl]-5-fluoro-2-[(1S)-2,2,2-trifluoro-1-methyl-ethoxy]pyridine-3-carboxamide]
> 100 nM	729 nM	CCn1c(CO)nn(-c2nc(O[C@@H](C)C(F)(F)F)c(C(=O)Nc3nc(OC)ncc3F)cc2F)c1=O [Example 82, 6-[4-Ethyl-3-(hydroxymethyl)-5-oxo-1,2,4-triazol-1-yl]-5-fluoro-N-(5-fluoro-2-methoxy-pyrimidin-4-yl)-2-[(1S)-2,2,2-trifluoro-1-methyl-ethoxy]pyridine-3-carboxamide]
1.4 nM	0.895 nM	CCn1c(CO)nn(-c2nc(O[C@@H](C)C(F)(F)F)c(C(=O)Nc3c(C)cc(C)nc3Cl)cc2F)c1=O [Example 72, (S)-N-(2-Chloro-4,6-dimethylpyridin-3-yl)-6-(4-ethyl-3-(hydroxymethyl)-5-oxo-4,5-dihydro-1H-1,2,4-triazol-1-yl)-5-fluoro-2-((1,1,1-trifluoropropan-2-yl)oxy)nicotinamide]
0.32 nM	0.382 nM	CCn1c(CF)nn(-c2nc(O[C@@H](C)C(F)(F)F)c(C(=O)Nc3c(C)n[nH]c3Cl)cc2F)c1=O [Example 96, N-(5-Chloro-3-methyl-1H-pyrazol-4-yl)-6-[4-ethyl-3-(fluoromethyl)-5-oxo-1,2,4-triazol-1-yl]-5-fluoro-2-[(1S)-2,2,2-trifluoro-1-methyl-ethoxy]pyridine-3-carboxamide]
1.47 nM	0.369 nM	CCn1c(CCl)nn(-c2nc(O[C@@H](C)C(F)(F)F)c(C(=O)Nc3c(F)cccc3Cl)cc2F)c1=O [Example 6, (S)-N-(2-Chloro-6-fluorophenyl)-6-(3-(chloromethyl)-4-ethyl-5-oxo-4,5-dihydro-1H-1,2,4-triazol-1-yl)-5-fluoro-2-((1,1,1-trifluoropropan-2-yl)oxy)nicotinamide]
> 100 nM	365 nM	CCn1c(CO)nn(-c2nc(O[C@@H](C)C(F)(F)F)c(C(=O)Nc3cn(C)nc3COC)cc2F)c1=O [Example 61, (S)-6-(4-Ethyl-3-(hydroxymethyl)-5-oxo-4,5-dihydro-1H-1,2,4-triazol-1-yl)-5-fluoro-N-(3-(methoxymethyl)-1-methyl-1H-pyrazol-4-yl)-2-((1,1,1-trifluoropropan-2-yl)oxy)nicotinamide]
> 100 nM	95.2 nM	CCn1c(CO)nn(-c2nc(O[C@@H](C)C(F)(F)F)c(C(=O)Nc3nccn3C3CC3)cc2F)c1=O [Example 73, (S)-N-(1-Cyclopropyl-1H-imidazol-2-yl)-6-(4-ethyl-3-(hydroxymethyl)-5-oxo-4,5-dihydro-1H-1,2,4-triazol-1-yl)-5-fluoro-2-((1,1,1-trifluoropropan-2-yl)oxy)nicotinamide]
51.3 nM	40.4 nM	CCn1c(CO)nn(-c2nc(O[C@@H](C)C(F)(F)F)c(C(=O)Nc3nccnc3Cl)cc2F)c1=O [Example 19, (S)-N-(3-Chloropyrazin-2-yl)-6-(4-ethyl-3-(hydroxymethyl)-5-oxo-4,5-dihydro-1H-1,2,4-triazol-1-yl)-5-fluoro-2-((1,1,1-trifluoropropan-2-yl)oxy)nicotinamide]
> 100 nM	98.1 nM	CCn1c(CO)nn(-c2nc(O[C@@H](C)C(F)(F)F)c(C(=O)Nc3cc(C(C)C)nn3C)cc2F)c1=O [Example 59, (S)-6-(4-Ethyl-3-(hydroxymethyl)-5-oxo-4,5-dihydro-1H-1,2,4-triazol-1-yl)-5-fluoro-N-(3-isopropyl-1-methyl-1H-pyrazol-5-yl)-2-((1,1,1-trifluoropropan-2-yl)oxy)nicotinamide]
60.9 nM	22.9 nM	CCn1c(CO)nn(-c2nc(O[C@@H](C)C(F)(F)F)c(C(=O)Nc3ccncc3Cl)cc2F)c1=O [Example 10, (S)-N-(3-Chloropyridin-4-yl)-6-(4-ethyl-3-(hydroxymethyl)-5-oxo-4,5-dihydro-1H-1,2,4-triazol-1-yl)-5-fluoro-2-((1,1,1-trifluoropropan-2-yl)oxy)nicotinamide]
19.9 nM	9.9 nM	CCn1c(CO)nn(-c2nc(O[C@@H](C)C(F)(F)F)c(C(=O)Nc3cc(OC)ncc3C)cc2F)c1=O [Example 66, (S)-6-(4-ethyl-3-(hydroxymethyl)-5-oxo-4,5-dihydro-1H-1,2,4-triazol-1-yl)-5-fluoro-N-(2-methoxy-5-methylpyridin-4-yl)-2-((1,1,1-trifluoropropan-2-yl)oxy)nicotinamide]
25 nM	12.3 nM	CCn1c(CO)nn(-c2nc(O[C@@H](C)C(F)(F)F)c(C(=O)Nc3cc(F)cnc3Cl)cc2F)c1=O [Example 78, N-(2-Chloro-5-fluoro-3-pyridyl)-6-[4-ethyl-3-(hydroxymethyl)-5-oxo-1,2,4-triazol-1-yl]-5-fluoro-2-[(1S)-2,2,2-trifluoro-1-methyl-ethoxy]pyridine-3-carboxamide]
> 100 nM	101 nM	CCn1c(CO)nn(-c2nc(O[C@@H](C)C(F)(F)F)c(C(=O)Nc3c(Cl)ccc(=O)n3C)cc2F)c1=O [Example 64, (S)-N-(3-Chloro-1-methyl-6-oxo-1,6-dihydropyridin-2-yl)-6-(4-ethyl-3-(hydroxymethyl)-5-oxo-4,5-dihydro-1H-1,2,4-triazol-1-yl)-5-fluoro-2-((1,1,1-trifluoropropan-2-yl)oxy)nicotinamide]
21.1 nM	6.4 nM	CCn1c(CO)nn(-c2nc(O[C@@H](C)C(F)(F)F)c(C(=O)Nc3c(C)n[nH]c3C)cc2F)c1=O [Example 49, (S)-N-(3,5-Dimethyl-1H-pyrazol-4-yl)-6-(4-ethyl-3-(hydroxymethyl)-5-oxo-4,5-dihydro-1H-1,2,4-triazol-1-yl)-5-fluoro-2-((1,1,1-trifluoropropan-2-yl)oxy)nicotinamide]
0.17 nM	0.851 nM	CCn1c(CF)nn(-c2nc(OC(C)C)c(C(=O)Nc3c(C)n[nH]c3Cl)cc2F)c1=O [Example 108, N-(5-Chloro-3-methyl-1H-pyrazol-4-yl)-6-[4-ethyl-3-(fluoromethyl)-5-oxo-1,2,4-triazol-1-yl]-5-fluoro-2-isopropoxy-pyridine-3-carboxamide]
0.328 nM	0.312 nM	CCn1c(CO)nn(-c2nc(O[C@@H](C)C(F)(F)F)c(C(=O)Nc3c(Cl)ccnc3OC)cc2F)c1=O [Example 126, N-(4-Chloro-2-methoxy-3-pyridyl)-6-[4-ethyl-3-(hydroxymethyl)-5-oxo-1,2,4-triazol-1-yl]-5-fluoro-2-[(1S)-2,2,2-trifluoro-1-methyl-ethoxy]pyridine-3-carboxamide]
108 nM	4.3 nM	CCn1c(CO)nn(-c2nc(O[C@@H](C)C(F)(F)F)c(C(=O)Nc3cc[nH]c(=O)c3Cl)cc2F)c1=O [Example 20, (S)-N-(3-Chloro-2-oxo-1,2-dihydropyridin-4-yl)-6-(4-ethyl-3-(hydroxymethyl)-5-oxo-4,5-dihydro-1H-1,2,4-triazol-1-yl)-5-fluoro-2-((1,1,1-trifluoropropan-2-yl)oxy)nicotinamide]
